# Values quoted from earlier work, collected in patent publication US7947458B1, “Placental human neurokinin B precursor” (Perinatal Diagnostics Limited, priority 1999, dated 2011).
# Like-named read-outs stand apart in the source and are kept apart here. Ends that are not written are not given here.
# Legend:
# NK1 receptor = NK1 receptor (Homo sapiens, UniProt P25103)
# NK2 receptors = target: T1, NK2 receptors (Homo sapiens, UniProt P21452)
# T1 sequence (P21452 1-398): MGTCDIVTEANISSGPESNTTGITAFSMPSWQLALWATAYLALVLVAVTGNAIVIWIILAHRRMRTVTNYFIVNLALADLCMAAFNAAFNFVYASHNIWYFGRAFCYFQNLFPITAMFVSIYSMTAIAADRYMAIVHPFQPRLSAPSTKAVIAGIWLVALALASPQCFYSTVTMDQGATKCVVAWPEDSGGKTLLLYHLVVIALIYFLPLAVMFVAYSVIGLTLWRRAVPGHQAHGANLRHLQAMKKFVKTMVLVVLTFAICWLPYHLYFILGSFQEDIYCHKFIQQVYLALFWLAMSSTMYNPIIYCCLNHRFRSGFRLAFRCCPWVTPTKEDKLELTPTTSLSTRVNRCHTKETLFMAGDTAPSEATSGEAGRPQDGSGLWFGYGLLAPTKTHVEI
# [1] = dog, in vivo
# [2] = intravenous infusion, rats
# [3] = intravenous injections, guinea pigs
# NK3 receptor = target: T2, NK3 receptor (Homo sapiens, UniProt P29371)
# T2 sequence (P29371 1-465): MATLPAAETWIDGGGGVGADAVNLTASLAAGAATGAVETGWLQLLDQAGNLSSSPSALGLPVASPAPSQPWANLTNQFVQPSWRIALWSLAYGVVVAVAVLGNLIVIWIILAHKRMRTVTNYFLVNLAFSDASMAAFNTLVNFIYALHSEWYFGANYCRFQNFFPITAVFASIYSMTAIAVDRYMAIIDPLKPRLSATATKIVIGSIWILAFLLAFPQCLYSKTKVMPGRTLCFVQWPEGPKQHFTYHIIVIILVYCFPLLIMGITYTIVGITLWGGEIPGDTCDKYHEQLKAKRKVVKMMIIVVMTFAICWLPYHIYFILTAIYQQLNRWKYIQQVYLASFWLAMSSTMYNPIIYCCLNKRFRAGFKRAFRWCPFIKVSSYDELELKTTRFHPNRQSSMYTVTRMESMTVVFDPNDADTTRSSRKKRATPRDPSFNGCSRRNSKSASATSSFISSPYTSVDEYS
# NK1 receptor, sequence (P25103 whole entry, species assumed): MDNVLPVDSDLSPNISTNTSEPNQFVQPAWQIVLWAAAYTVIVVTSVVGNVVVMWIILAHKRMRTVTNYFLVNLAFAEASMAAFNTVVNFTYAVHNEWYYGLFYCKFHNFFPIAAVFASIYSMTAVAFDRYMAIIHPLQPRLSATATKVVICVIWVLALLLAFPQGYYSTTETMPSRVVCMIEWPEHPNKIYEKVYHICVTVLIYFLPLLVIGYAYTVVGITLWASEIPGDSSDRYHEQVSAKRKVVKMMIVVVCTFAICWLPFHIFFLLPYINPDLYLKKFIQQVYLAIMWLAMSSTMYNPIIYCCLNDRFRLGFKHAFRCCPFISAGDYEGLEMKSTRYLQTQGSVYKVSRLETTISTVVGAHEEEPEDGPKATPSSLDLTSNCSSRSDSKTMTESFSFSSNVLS
compound,measurement,setting,value
CN(Cc1ccccc1)C(=O)[C@H](Cc1ccc2ccccc2c1)NC(=O)[C@@H]1C[C@@H](O)CN1C(=O)c1cn(C)c2ccccc12 [FK 888],affinity for the NK1 receptor,NK1 receptor,high affinity
CC(=O)NC1(c2ccccc2)CCN(CC[C@H](CN(C)C(=O)c2ccccc2)c2ccc(Cl)c(Cl)c2)CC1 [SR 48968],affinity and selectivity for NK2 receptors,NK2 receptors,high affinity and selectivity
"neurokinin A (HKTDSFVGLM-NH2; ends and bridges not checked; UniProt P20366 98-107, looked up) [substance K, tachykinin designated substance K or neurokinin A]",effect on heart rate,[1],slow down the heart rate
neurokinin B [NKB],"contraction, potency rank among neurokinins",hepatic portal vein,most potent neurokinin
same,effect on blood pressure,[2],increase in blood pressure
same,effect on blood pressure,[3],dose related hypertension
same,"vasoconstriction, potency rank among neurokinins",mesenteric vascular bed,most potent neurokinin to cause vasoconstriction
same,potency rank among tachykinins at the NK3 receptor,NK3 receptor,most potent member of the family
"substance P (RPKPQQFFGLM-NH2; ends and bridges not checked; UniProt P20366 58-68, looked up)",effect on heart rate,[1],slow down the heart rate
